Legend:
[1] = target: dopaminergic receptors D2 (Homo sapiens, UniProt P14416); test: Radioligand binding assay, dopaminergic D2 receptors; conditions: binding assay, test compound 1×10^−6 M
Description: (§1) The specific ligand binding to the receptors is defined as the difference between the total binding and the non-specific binding determined in the presence of the excess of unlabelled ligand.
(§2) The results are expressed as a percent of control specific binding ((measured specific binding/control specific binding)×100) and as a percent inhibition of control specific binding (100−((measured specific binding/control specific binding)×100)) obtained in the presence of the test compounds. The specific ligand binding to the receptors is defined as the difference between the total binding and the nonspecific binding determined in the presence of an excess of unlabelled ligand. Scintillation counting was the method of detection of ligand binding. The IC50 values (concentration causing a half-maximal inhibition of control specific binding) were determined by non-linear regression analysis of the competition curves generated with mean replicate values using Hill equation curve fitting (Y=D+[(A−D)/(1+(C/C50)nH)], where Y=specific binding, D=minimum specific binding, A=maximum specific binding, C=compound concentration, C50=IC50, and nH=slope factor). This analysis was performed using a software developed at Cerep (Hill software) and validated by comparison with data generated by the commercial software SigmaPlot® 4.0 for Windows® (© 1997 by SPSS Inc.). The inhibition constants (Ki) were calculated using the Cheng Prusoff equation (Ki=IC50/(1+(L/KD)), where L=concentration of radioligand in the assay, and KD=affinity of the radioligand for the receptor). A scatchard plot was used to determine the Kd.
(§3) Experimental conditions for tests are given in Table 1, the results of tests for representative compounds are given in Tables 2a and 2b (receptors D2 and D3) and in Table 3 (receptors D4).

[2] = target: dopaminergic receptors D3 (Homo sapiens, UniProt P35462); test: Radioligand binding assay, dopaminergic D3 receptors; conditions: test compound 1×10^−6 M
Description: as §1, §2, §3

[3] = target: T1, 5-HT1A receptor (rat hippocampus) (Rattus norvegicus, UniProt P19327); test: Radioligand binding assay, serotoninergic 5-HT1A receptors; conditions: binding assay result in %, Table 5a;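 also: test compound at 1 µM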
T1 construct: hippocampus; from tissue; host or cells: rat hippocampus
T1 sequence (P19327 1-422): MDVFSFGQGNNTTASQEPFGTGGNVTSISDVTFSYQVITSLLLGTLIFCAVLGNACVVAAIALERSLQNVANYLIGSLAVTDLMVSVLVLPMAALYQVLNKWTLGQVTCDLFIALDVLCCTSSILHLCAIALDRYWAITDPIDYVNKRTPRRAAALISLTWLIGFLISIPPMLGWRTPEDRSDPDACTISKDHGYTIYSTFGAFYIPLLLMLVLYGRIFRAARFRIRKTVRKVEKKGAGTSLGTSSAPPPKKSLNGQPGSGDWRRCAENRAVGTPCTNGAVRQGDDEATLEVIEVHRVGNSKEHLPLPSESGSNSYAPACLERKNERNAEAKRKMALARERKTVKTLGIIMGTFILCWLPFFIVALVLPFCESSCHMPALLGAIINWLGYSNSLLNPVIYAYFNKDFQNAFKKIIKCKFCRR
Description: as §1, §2
(§4) Experimental conditions for tests are given in Table 4, and results of tests for representative compounds of the invention are given in Table 5a and 5b (receptors 5-HT1A, 5-HT2A, 5-HT6 and 5-HT7) and in Table 6 (receptors 5-HT2C).

5-HT2A receptor = target: T2, 5-HT2A receptor (Homo sapiens, UniProt P28223); test: Radioligand binding assay, serotoninergic 5-HT2A receptors; conditions: binding assay result in %, Table 5a
T2 construct: purchased PerkinElmer
Description: as §1, §2
5-HT2A: Bryan L. Roth. Assay Protocol Book. University of North Carolina At Chapel Hill. National Institute of Mental Health. Psychoactive Drug Screening Program. Available on-line at 31 Aug. 2008: http://pdsp.med.unc.edu/UNC-CH%20Protocol%20Book.pdf

5-HT6 receptor = target: T3, 5-HT6 receptor (Homo sapiens, UniProt P50406); test: Radioligand binding assay, serotoninergic 5-HT6 receptors; conditions: binding assay result in %, Table 5a;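 also: test compound at 1 µM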
T3 construct: purchased PerkinElmer
Description: as §1, §2, §4
5-HT6: Bryan L. Roth. Assay Protocol Book. University of North Carolina At Chapel Hill. National Institute of Mental Health. Psychoactive Drug Screening Program. Available on-line at 31 Aug. 2008: http://pdsp.med.unc.edu/UNC-CH %20Protocol%20Book.pdf

5-HT7 receptor = target: T4, 5-HT7 receptor (Homo sapiens, UniProt P34969); test: Radioligand binding assay, serotoninergic 5-HT7 receptors; conditions: binding assay result in %, Table 5a;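 also: test compound at 1 µM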
T4 construct: purchased PerkinElmer
Description: as §1, §2, §4
5-HT7: Bryan L. Roth. Assay Protocol Book. University of North Carolina At Chapel Hill. National Institute of Mental Health. Psychoactive Drug Screening Program. Available on-line at 31 Aug. 2008: http://pdsp.med.unc.edu/UNC-CH %20Protocol%20Book.pdf

[4] = system: α1 adrenergic receptors (rat cerebral cortex); test: Radioligand binding assay, adrenergic α1 receptors; conditions: test compound 1×10^−6 M
Description: as §1
as §2, with “This analysis was performed using a software developed at Cerep (Hill software) and validated by comparison with data generated by the commercial software SigmaPlot® 4.0 for Windows® (© 1997 by SPSS Inc.).” left out

[5] = target: T5, serotonin transporter (SERT) (Homo sapiens, UniProt P31645); test: Radioligand binding assay, serotonin transporter (SERT); conditions: binding assay, test compound 1×10^−6 M
T5 construct: expressed in transfected cells; host or cells: CHO cells
Description: as §1, §2
Experimental conditions for tests are given in Table 12, and results of tests for representative compounds are given in Tables 13a and 13b.

Chain of dopaminergic receptors D2 (P14416 whole entry): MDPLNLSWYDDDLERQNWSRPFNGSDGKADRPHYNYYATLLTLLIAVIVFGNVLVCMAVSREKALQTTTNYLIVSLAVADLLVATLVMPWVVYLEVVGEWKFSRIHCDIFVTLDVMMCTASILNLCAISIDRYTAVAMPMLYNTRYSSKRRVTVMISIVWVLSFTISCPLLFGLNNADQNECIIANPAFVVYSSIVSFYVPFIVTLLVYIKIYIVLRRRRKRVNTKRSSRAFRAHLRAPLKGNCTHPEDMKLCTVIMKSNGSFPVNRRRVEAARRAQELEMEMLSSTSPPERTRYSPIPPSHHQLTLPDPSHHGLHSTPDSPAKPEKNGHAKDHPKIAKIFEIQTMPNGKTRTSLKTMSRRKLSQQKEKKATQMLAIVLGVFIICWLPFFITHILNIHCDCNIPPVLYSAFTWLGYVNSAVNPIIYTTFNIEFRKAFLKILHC
Chain of dopaminergic receptors D3 (P35462 whole entry): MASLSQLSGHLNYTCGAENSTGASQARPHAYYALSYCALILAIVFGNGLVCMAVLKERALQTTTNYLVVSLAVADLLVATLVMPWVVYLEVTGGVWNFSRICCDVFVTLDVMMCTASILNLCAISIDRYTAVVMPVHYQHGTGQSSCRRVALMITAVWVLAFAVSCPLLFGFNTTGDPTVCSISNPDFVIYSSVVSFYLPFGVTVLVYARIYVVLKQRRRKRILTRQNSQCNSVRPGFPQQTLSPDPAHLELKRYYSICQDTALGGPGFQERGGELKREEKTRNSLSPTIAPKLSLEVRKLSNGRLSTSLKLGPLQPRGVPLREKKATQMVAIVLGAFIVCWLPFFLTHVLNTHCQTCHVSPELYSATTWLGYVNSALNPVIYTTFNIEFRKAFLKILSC
T5 sequence (P31645 whole entry): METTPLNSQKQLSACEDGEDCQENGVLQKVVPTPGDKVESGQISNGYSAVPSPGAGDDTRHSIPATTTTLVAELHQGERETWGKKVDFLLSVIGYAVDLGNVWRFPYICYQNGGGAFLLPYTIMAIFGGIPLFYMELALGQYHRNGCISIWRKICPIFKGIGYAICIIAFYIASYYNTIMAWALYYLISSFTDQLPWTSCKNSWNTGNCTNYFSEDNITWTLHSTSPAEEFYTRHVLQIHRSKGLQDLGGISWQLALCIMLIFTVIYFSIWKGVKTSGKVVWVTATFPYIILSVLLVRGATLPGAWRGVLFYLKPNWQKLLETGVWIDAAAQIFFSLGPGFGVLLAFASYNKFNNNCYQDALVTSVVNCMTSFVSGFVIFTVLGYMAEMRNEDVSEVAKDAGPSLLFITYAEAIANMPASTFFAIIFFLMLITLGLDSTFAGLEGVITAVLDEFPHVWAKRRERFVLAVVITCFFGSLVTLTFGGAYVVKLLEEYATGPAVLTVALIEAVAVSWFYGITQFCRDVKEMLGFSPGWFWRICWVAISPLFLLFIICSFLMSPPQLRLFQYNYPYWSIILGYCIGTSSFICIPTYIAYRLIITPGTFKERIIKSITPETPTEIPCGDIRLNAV
T2 sequence (P28223 whole entry): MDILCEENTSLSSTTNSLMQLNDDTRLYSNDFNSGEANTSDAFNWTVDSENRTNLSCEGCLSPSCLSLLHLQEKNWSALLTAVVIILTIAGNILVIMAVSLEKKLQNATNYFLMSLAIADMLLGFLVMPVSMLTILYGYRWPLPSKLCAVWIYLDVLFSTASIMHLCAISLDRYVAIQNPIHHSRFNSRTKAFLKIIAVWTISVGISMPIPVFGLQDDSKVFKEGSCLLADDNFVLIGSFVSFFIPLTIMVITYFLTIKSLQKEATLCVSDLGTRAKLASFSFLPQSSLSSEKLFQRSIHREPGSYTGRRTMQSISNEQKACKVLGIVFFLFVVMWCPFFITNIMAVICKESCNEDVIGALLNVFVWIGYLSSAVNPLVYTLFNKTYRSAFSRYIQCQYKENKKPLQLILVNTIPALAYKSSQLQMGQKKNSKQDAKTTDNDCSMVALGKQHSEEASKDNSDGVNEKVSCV
T3 sequence (P50406 whole entry): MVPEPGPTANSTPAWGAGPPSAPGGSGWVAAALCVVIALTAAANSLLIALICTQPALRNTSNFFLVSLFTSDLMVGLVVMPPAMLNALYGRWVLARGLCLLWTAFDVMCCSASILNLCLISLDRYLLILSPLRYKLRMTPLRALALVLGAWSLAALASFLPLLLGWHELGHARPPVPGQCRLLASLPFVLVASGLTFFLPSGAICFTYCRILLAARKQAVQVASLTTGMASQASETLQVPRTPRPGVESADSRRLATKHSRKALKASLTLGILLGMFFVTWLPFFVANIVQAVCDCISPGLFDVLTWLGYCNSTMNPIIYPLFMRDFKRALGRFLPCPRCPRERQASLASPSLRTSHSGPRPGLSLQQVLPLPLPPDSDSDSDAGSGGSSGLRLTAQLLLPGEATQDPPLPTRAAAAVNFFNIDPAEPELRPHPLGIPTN
T4 sequence (P34969 whole entry): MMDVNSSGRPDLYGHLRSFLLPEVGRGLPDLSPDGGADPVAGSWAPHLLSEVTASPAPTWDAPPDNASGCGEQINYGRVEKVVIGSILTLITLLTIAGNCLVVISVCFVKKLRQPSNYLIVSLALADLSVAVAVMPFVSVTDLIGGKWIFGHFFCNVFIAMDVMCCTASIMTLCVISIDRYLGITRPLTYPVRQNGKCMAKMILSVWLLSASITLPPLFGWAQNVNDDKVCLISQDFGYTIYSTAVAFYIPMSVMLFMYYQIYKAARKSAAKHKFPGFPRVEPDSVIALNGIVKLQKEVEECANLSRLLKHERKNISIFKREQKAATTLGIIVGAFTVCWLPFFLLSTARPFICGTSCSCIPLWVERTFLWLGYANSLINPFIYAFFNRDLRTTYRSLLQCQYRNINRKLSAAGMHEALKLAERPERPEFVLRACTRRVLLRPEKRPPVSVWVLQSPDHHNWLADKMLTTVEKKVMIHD

Compound | D2 [%] [1] | D3 [%] [2] | 5-HT1A [%] [3] | 5-HT2A [%] (5-HT2A receptor) | 5-HT6 [%] (5-HT6 receptor) | 5-HT7 [%] (5-HT7 receptor) | α1 [%] [4] | SERT [%] [5] | inhibition at 1 µM [1] | inhibition at 1 µM [2] | inhibition at 1 µM [3] | inhibition at 1 µM (5-HT2A receptor) | inhibition at 1 µM (5-HT6 receptor) | inhibition at 1 µM (5-HT7 receptor) | inhibition at 1 µM [5]
O=S(=O)(NC1CCN(CCOc2nsc3ccccc23)CC1)c1ccc2ccccc2c1 [Compound 40, N-[1-[2-(1,2-Benzothiazol-3-yloxy)ethyl]-4-piperidine]naphthalene-2-sulphonamide] | 49% | 39% | 68% | 102% | 72% | 85% | 12% | −5% | – | – | – | – | – | – | –
O=S(=O)(NCC1CN(CCOc2cccc3ccccc23)C1)c1csc2ccccc12 [Compound 171, N-[[1-[2-(1-Naphthyloxy)ethyl]azetidin-3-yl]methyl]benzothiophene-3-sulphonamide] | – | – | – | – | – | – | 50% | – | 72% | 99% | 92% | 101% | 96% | 94% | 44%
O=S(=O)(NCC1CCN(CCOc2nsc3ccccc23)C1)c1ccc2ccccc2c1 (stereo not shown) [Compound 44, N-[[1-[2-(1,2-Benzothiazol-3-yloxy)ethyl]pyrrolidin-3-yl]methyl]naphthalene-2-sulphonamide] | – | – | – | – | – | – | 46% | – | 76% | 52% | 62% | 78% | 81% | 68% | 25%
O=S(=O)(NC1CCN(CCOc2cccc3c2OCCO3)CC1)c1cccc2ccccc12 [Compound 100, N-[1-[2-(2,3-dihydro-1,4-benzodioxan-8-yloxy)ethyl]-4-piperidine]-naphthalene-1-sulphonamide] | 41% | 74% | 94% | 97% | 28% | 103% | 87% | 57% | – | – | – | – | – | – | –
O=S(=O)(NCC1CCN(CCOc2cccc3c2OCCO3)C1)c1cccs1 (stereo not shown) [Compound 302, N-[[1-[2-(2,3-Dihydro-1,4-benzodioxin-5-yloxy)ethyl]pyrrolidin-3-yl]-methyl]thiophene-2-sulphonamide] | – | – | – | – | – | – | 63% | – | 34% | 37% | 89% | 52% | 35% | 105% | 37%
O=S(=O)(NCC1CCN(CCOc2cccc3ccccc23)C1)c1cc2ccccc2s1 (stereo not shown) [Compound 268, N-[[1-[2-(1-Naphthyloxy)ethyl]pyrrolidin-3-yl]methyl]benzothiophene-2-sulphonamide] | – | – | – | – | – | – | 9% | – | 54% | 93% | 77% | 82% | 84% | 88% | 85%
CC(C)(C)c1ccc(S(=O)(=O)NC2CCN(CCCc3noc4cc(F)ccc34)C2)cc1 (stereo not shown) [Compound 14, 4-tert-Butyl-N-[1-[3-(6-fluoro-1,2-benzoxazol-3-yl)propyl]pyrrolidin-3-yl]benzenesulphonamide] | – | – | – | – | – | – | – | – | 100% | 90% | 24% | 80% | 82% | 76% | -3%
4-Fluoro-N-[[1-[3-(6-fluoro-1,2-benzoxazol-3-yl)propyl]azetidin-3-yl]methyl]benzenesulphonamide [Compound 147] | 88% | 74% | 60% | 95% | 86% | 89% | – | 24% | – | – | – | – | – | – | –
O=S(=O)(NCC1CN(CCCc2noc3cc(F)ccc23)C1)c1cc2ccccc2s1 [Compound 153, N-[[1-[3-(6-Fluoro-1,2-benzoxazol-3-yl)propyl]azetidin-3-yl]methyl]-benzothiophene-2-sulphonamide] | – | – | – | – | – | – | – | 21% | 82% | 61% | 55% | 96% | 80% | 86% | –
O=S(=O)(NCC1CCN(CCCc2noc3cc(F)ccc23)C1)c1cccc(O)c1 (stereo not shown) [Compound 254, N-[[1-[3-(6-Fluoro-1,2-benzoxazol-3-yl)propyl]pyrrolidin-3-yl]methyl]-3-hydroxy-benzenesulphonamide] | – | – | – | – | – | – | – | – | 75% | 34% | 49% | 98% | 78% | 102% | 10%
O=S(=O)(NC1CCN(CCCc2noc3cc(F)ccc23)C1)c1ccc(Br)cc1 (stereo not shown) [Compound 10, 4-Bromo-N-[1-[3-(6-fluoro-1,2-benzoxazol-3-yl)propyl]pyrrolidin-3-yl]benzenesulphonamide] | – | – | – | – | – | – | – | – | 99% | 49% | 20% | 96% | 85% | 86% | -2%
O=S(=O)(NC1CCN(CCCc2noc3cc(F)ccc23)CC1)c1cc2ccccc2s1 [Compound 324, N-[1-[3-(6-Fluoro-1,2-benzoxazol-3-yl)propyl]-4-piperidyl]benzothiophene-2-sulphonamide] | – | – | – | – | – | – | – | – | 77% | 41% | 49% | 99% | 78% | 101% | 18%
O=S(=O)(NCC1CCN(CCCc2noc3cc(F)ccc23)C1)c1ccc2c(c1)CCO2 (stereo not shown) [Compound 256, N-[[1-[3-(6-Fluoro-1,2-benzoxazol-3-yl)propyl]pyrrolidin-3-yl]methyl]-2,3-dihydrobenzofuran-5-sulphonamide] | – | – | – | – | – | – | – | – | 37% | 25% | 29% | 87% | 74% | 92% | 40%
